Measured values from US20230293348A1, “DYES FOR USE IN A METHOD OF PHOTOPORATION OF THE INNER LIMITING MEMBRANE” (UNIVERSITEIT GENT, priority 2020, published 2023).
Entries after “also recorded” stand apart in the source; their conditions may differ.

Experiments:
[1] = system: ILM of bovine retinal explants; assay: ILM perforation by ICG photoporation, cryosections stained for Collagen IV; details: ICG 1 mg/ml, 0,4 J/cm^2 800 nm 2 ps laser pulses
Description: FIG. 2: Images of cryosections of conventional bovine explants stained for nuclei in the retina by Hoechst staining (indicated in grey - low contrast) and showing the ILM stained by antibodies against Collagen IV (indicated in white). […] The study aimed to perforate the ILM by photoporation. Thereto, a vital dye, in particular Indocyanine Green (ICG), was delivered to the ILM after which the retina was illuminated with a powerful but extremely short pulse of 800 nm laser light. Without being bound to theory, the absorbance of light by the ICG can result in the evaporation of the surrounding water, creating vapour nanobubbles (VNBs) which upon collapse can cause damage to neighbouring tissue such as in particular the ILM. To generate ILM perforation, an ICG solution (1 mg/ml) was applied on the ILM surface of bovine retinal explants followed by laser scanning of the tissue with 2 picosecond pulses.

[2] = system: retinal surface of bovine retinal explants (Müller cell endfeet, nerve fibers); assay: Retinal surface imaging with Mitotracker Deep Red and Hoechst after ICG photoporation; details: ICG 0,1 mg/ml, 0,4 J/cm^2 laser
Description: FIG. 4: Images of the retinal surface after staining with Mitotracker and Hoechst. […] Scale bar = 25 µm.
Furthermore, a method was tested to look at the retinal surface in more detail, allowing to visualize several types of structures such as nerve fibers, blood vessels, and Müller cells (cell type located right underneath the ILM). To this end, intact retinal explants were stained with a dye mixture of Mitotracker Deep Red and Hoechst, which allows to identify these structures. […] Indeed, in untreated explants, the retinal surface was neatly organized: a mosaic of Müller cell endfeet intertwined with bundles of nerve fibers.

human ILM [3] = assay: Inherent affinity of free ICG for the ILM; format: binding; details: preliminary data
ILM of bovine explants = assay: Retinal entry of 100 nm polystyrene nanoparticles (Fluospheres) after ICG-mediated ILM perforation; details: ICG 1 mg/ml, 0,4 J/cm^2 laser
Description: FIG. 5: Images of cryosections of bovine explants stained for nuclei in the retina by Hoechst (indicated in grey - low contrast). […] Scale = 25 µm
It was further tested whether ICG-mediated ILM ablation allowed to deliver therapeutics to the retina.

human ILM [4] = assay: ILM ablation by ICG photoporation in human explants, cryosections stained for Collagen IV; details: 1 mg/ml ICG, 0,4 J/cm2 laser fluence
Description: FIG. 6: Images of cryosections of human explants stained for nuclei in the retina by Hoechst staining (indicated in grey - low contrast) and showing the ILM stained by antibodies against Collagen IV (indicated in white); scale = 25 µm. Top row: untreated; bottom row: treatment with 1 mg/ml ICG and 0,4 J/cm^2 laser fluence. Absence of the ILM is indicated by a dashed line.
Therefore, the approach was tested on human samples. Since the thickness of the ILM is also age dependent, we investigated human ILM ablation in younger and older patients. […] As illustrated in the top row, the ILM in untreated explants becomes gradually thicker with increasing age, which is an observation in accordance with literature (FIG. 6, untreated). Treated samples (bottom row) were treated with 1 mg/ml ICG and 0,4 J/cm2 laser fluence. Absence of the ILM is indicated by a dashed line.

CC1(C)C(/C=C/C=C/C=C/C=C2\N(CCCCS(=O)(=O)O)c3ccc4ccccc4c3C2(C)C)=[N+](CCCCS(=O)(=O)[O-])c2ccc3ccccc3c21 [ICG, Indocyanine Green] was tested, and the “ILM integrity on cryosections” value [1] was “ILM ablation; also recorded: most of the ILM was absent with only small parts remaining”, the “retinal surface organization (Mitotracker and Hoechst staining)” value [2] was “greatly disturbed; also recorded: way more disorganized” and the “inherent affinity for the human ILM versus the bovine ILM” value (human ILM [3]) was “remarkably higher than for the bovine ILM”. The “retinal entry of 100 nm polystyrene nanoparticles” value (ILM of bovine explants) was “high retinal uptake; also recorded: massive entry of the nanoparticles into the retina”, the “ILM integrity on cryosections” value (human ILM [4]; human explant patient one) was “fragmented ILM” and the “ILM integrity on cryosections” value (human ILM [4]; human explant patient three) was “completely absent”. For the same compound, the “ILM integrity on cryosections” value (human ILM [4]; human explant patient two) was “completely absent”.
